Experimental data: publication PMC5717258, “Bioaccumulation of pharmaceuticals and personal care product chemicals in fish exposed to wastewater effluent in an urban wetland” (Scientific Reports, 2017)
Read-outs that look alike come from different tables or passages of the source.

Columns and labels:
in vivo = details: goldfish (Carassius auratus), in vivo
Source text: Cages were visited weekly, and fish (13/cage) were fed during the visits (20 g/cage). All animal experiments were in accordance with CCAC guidance and approved by the GLLFAS-WSTD Animal Care Committee (Government of Canada). Further details on the caging and preparation of the fish and animal care protocols are provided in Simmons et al.[32]. […] A fourth site, Jordan Harbour (JH), a widening of 20 Mile Creek adjacent to Lake Ontario near Jordan ON, served as a reference site. Mass and fork length were measured and recorded. Plasma collection and storage is described in the SI. Plasma of caged goldfish was divided for proteome, metabolome and PPCP analysis. Due to limited volumes, pooled samples of plasma from 25 individual fish (50 µL/individual) was pooled to yield one sample from at each location for PPCP analysis.
(§1) A total of 20 fish plasma samples from the pooled caged fish (7) and the wild fish (13) along with 12 water samples were selected for analysis. […] A full list of analytes is provided in Supplementary Information. Mass labelled^13C-, or deuterated surrogate internal standards were used for quantification of all analytes via the isotope dilution/surrogate standard quantitation method. Prior to extraction and/or clean-up procedures, aqueous samples were adjusted to pH 2.0, spiked with extraction surrogate standards, then adjusted to pH 4 using tetrasodium ethylenediamine-tetraacetate dihydrate. Plasma samples (2.3–2.5 g) were spiked with extraction surrogate standards, sonicated with 20 mL acetonitrile, then diluted with ultra-pure water to 200 mL. The extracts were cleaned up by solid phase extraction using Oasis HLB cartridges (Waters Ltd. Mississauga ON), filtered, and analyzed by liquid chromatography-electrospray ionization-tandem mass spectrometry (LC/ESI-MS/MS) in positive or negative ionization mode. The analysis of the complete list of analytes (SI Table S1) required a total of five instrumental runs.
(§2) Quality assurance steps included analysis of lab blanks for water and plasma along with matrix recovery spikes. […] Detection limits (DLs) were defined as lowest calibration level adjusted to the maximal sample size or 3 times the signal of the noise in the target channel converted to an equivalent sample, whichever was greater. […] Where analytes were detected in two or more samples of the same species or series of water samples, non-detect values were converted to ½ the DL value for reporting purposes.

[1] = Description: (§3) Plasma from 9 individual male fish (500 µL/individual) was pooled to yield 3 samples for PPCP analysis. […] Plasma from 6 individual carp (2.3–3.5 g) from each location was selected for PPCP analysis. […] Plasma samples were frozen (−80 °C) until analysis.
as §1

[2] = Table S7; ref Meador et al. (2016); cited from earlier work
[3] = remark: listed apart in the source
Description: as §3, §1, §2

[4] = Table S7; ref Meador et al. (2016); cited from earlier work; remark: listed apart in the source
[5] = Plasma bioaccumulation factor (BAFP), goldfish; type: in vivo, goldfish (Carassius auratus); details: CPM2; water sample of August 2012
Description: Bioaccumulation factor (BAFP) was calculated as concentration in fish plasma (ng/g × 1000) divided by concentration in water (ng/L). Two widely used modeling approaches for predicting organic contaminant bioaccumulation were assessed: the BCF-BAF model for whole body BAFs[53] and the fish-plasma concentration calculation of Huggett et al.[35] modified by Berninger et al.[54]. The latter involves estimating an octanol-water partition coefficient (Kow) adjusted for fraction ionized (log D), using the pKa value to adjust log Kow[54] taking into account the pH of CPM waters. Further information on the calculation of log D, blood-water partitioning (PBW), and plasma concentrations (FPC) is given in the SI.

[6] = plasma concentration, CPM1 caged
[7] = plasma concentration, CPM2 caged
[8] = plasma concentration, CPM3 caged
[9] = Brown Bullhead (Ameiurus nebulosus), in vivo
[10] = female, carp (Cyprinus carpio), in vivo
[11] = male, carp (Cyprinus carpio), in vivo
[12] = male, goldfish (Carassius auratus), in vivo
[13] = carp (Cyprinus carpio), in vivo

SMILES	concentration at 21 days (in vivo; [6])	concentration at 21 days (in vivo; [7])	concentration at 21 days (in vivo; [8])	concentration at 21 days (in vivo; plasma concentration, JH caged)	plasma concentration, JH-BB [1, 9]	plasma concentration, CPM-C 10 [3, 10]	plasma concentration, CPM-C 13 [3, 10]	plasma concentration, CPM-C 36 [3, 10]	plasma concentration, JH-C 73 [3, 10]	plasma concentration, JH-C 75 [3, 10]	plasma concentration, CPM-C 2 [3, 11]	plasma concentration, CPM-C 20 [3, 11]	plasma concentration, JH-C 54 [3, 11]	plasma concentration, JH-C 74 [3, 11]	plasma concentration, JH-C 78 [3, 11]	plasma concentration, CPM wild-01 [3, 12]	plasma concentration, CPM wild-02 [3, 12]	plasma concentration, CPM wild-03 [3, 12]	other results
Cn1c(=O)c2c(ncn2C)n(C)c1=O [Caffeine]																			concentration at 21 days (in vivo; plasma concentration, CPM1 caged, CPM1, 07-2014, pooled plasma, wet weight): 3.38 ng/g; concentration at 21 days (in vivo; plasma concentration, CPM2 caged, CPM2, 07-2014, pooled plasma, wet weight): 1.46 ng/g; concentration at 21 days (in vivo; plasma concentration, CPM3 caged, CPM3, 07-2014, pooled plasma, wet weight): 1.53 ng/g; concentration at 21 days (in vivo; plasma concentration, JH caged, Jordan Harbour reference site, 07-2014, pooled plasma, wet weight): < 3 ng/g; plasma concentration, JH-BB ([1]; Jordan Harbour brown bullhead, wet weight): < 5.7 ng/g; Sculpin (whole body) concentration [2]: 13 ng/g; plasma concentration, JH-C 54 ([3]; Jordan Harbour carp 54, Nov 7, 2011, male, wet weight): < 3.18 ng/g; plasma concentration, JH-C 73 ([3]; Jordan Harbour carp 73, Nov 7, 2011, female, wet weight): < 3.09 ng/g; plasma concentration, JH-C 74 ([3]; Jordan Harbour carp 74, Nov 7, 2011, male, wet weight): < 3.19 ng/g; plasma concentration, JH-C 75 ([3]; Jordan Harbour carp 75, Nov 7, 2011, female, wet weight): < 4.52 ng/g; plasma concentration, JH-C 78 ([3]; Jordan Harbour carp 78, Nov 7, 2011, male, wet weight): < 3.13 ng/g; plasma concentration, JH-C 82 ([3]; Jordan Harbour carp 82, Nov 7, 2011, female, wet weight): < 3.01 ng/g; plasma concentration, CPM wild-02 ([3]; wild goldfish sample 02, 2012, wet weight): 1.525 ng/g; plasma concentration, CPM wild-03 ([3]; wild goldfish sample 03, 2012, wet weight): 1.565 ng/g; Salmon (whole body) concentration [4]: 18 ng/g
C[C@]12CCC(=O)C=C1CC[C@@H]1[C@@H]2[C@@H](O)C[C@@]2(C)[C@H]1CC[C@]2(O)C(=O)CO [Hydrocortisone]	100 ng/g	107 ng/g	113 ng/g	92.4 ng/g	187 ng/g	764 ng/g	1010 ng/g	875 ng/g	456 ng/g	1440 ng/g	1010 ng/g	210 ng/g	232 ng/g	242 ng/g	522 ng/g	129 ng/g	134 ng/g	118 ng/g	
CC1CCc2cc(F)cc3c(=O)c(C(=O)O)cn1c23 (centres unmarked) [Flumequine]	1.1 ng/g	0.146 ng/g	0.344 ng/g	< 0.3 ng/g	0.622 ng/g	1.23 ng/g	1.14 ng/g	0.698 ng/g	0.155 ng/g	0.474 ng/g	0.799 ng/g	0.162 ng/g	0.159 ng/g	0.160 ng/g	0.252 ng/g	1.37 ng/g	0.188 ng/g	0.157 ng/g	BAFP, CPM2 goldfish caged [5]: 38 L/kg; concentration at 21 days (in vivo; caged goldfish plasma, range of concentrations): 0.16 to 1.37 ng/g; Cootes carp plasma, range of concentrations [3, 13]: 0.16 to 1.23 ng/g; plasma concentration, carp, this study (mean) [3, 13]: 0.70 ng/g wet weight or ng/mL for plasma; plasma concentration, JH-C 82 [3, 10]: 0.151 ng/g; plasma concentration, CPM-C 01 [3, 11]: 0.158 ng/g; plasma concentration, goldfish, this study (mean) [3, 12]: 0.57 ng/g wet weight or ng/mL for plasma; wild goldfish plasma, range of concentrations [3, 12]: 0.15 to 1.1 ng/g
